The subject of series [1] is rats. The note with it: cited from earlier work.
For series [2], the system named is rats. The following applies: rat; cited from earlier work.
For series [3] the following is noted: rats, rabbits, dogs, and humans; cited from earlier work.
The next series deals with transferrin endocytosis. The note with it: 10 mM; cited from earlier work.
The subject of another series is Ab1-40/42. The following applies: rats, stereotactical injection into the hippocampus; cited from earlier work.
Another series has as its system human keratinocytes. The following applies: cited from earlier work.
Series [4] concerns rats. The following applies: […] daily; cited from earlier work.
The subject of a further series is BBB. The following applies: cited from earlier work; for Transport across BBB: 2 h, 1 mM.
The subject of the next series is human erythrocytes. The note with it: human erythrocytes; cited from earlier work.
For series [5] the following is noted: in vivo; cited from earlier work.
Another series relates to MCF-7 cells. The experiment in a line: Wound healing / gap closure migration assay (CytoSelect CBA-120). The note with it: treated 2 hours. The format is cell-based, human. On the procedure: (§1) Published results have shown that β-CD inhibits human MDA-MB 231 cell migration (Guerra et al. 2016). This inhibition was attributed to the ability of β-CD to “deplete cholesterol”. β-CD, however, depletes also phospholipids. […] Cells were cultured in 24-well culture plates (Cytoselect CBA-120, 0.9 mm wound healing/gap closure migration assay) for 24 hours with wound healing insert in place. […] Protocol: Warm up the 24-well plate (CBA-120, Cell BioLabs Inc.) with 0.9 mm CytoSelect Wound Healing Inserts at room temperature for 10 minutes. Using sterile forceps, orient the desired number of inserts in the plate wells with their “wound field” aligned in the same direction. Create a cell suspension containing 0.5-1.0×10^6 cells/ml in media containing 10% fetal bovine serum (FBS). Add 500 μL of cell suspension to each well by carefully inserting the pipette tip through the open end at the top of the insert. For optimal cell dispersion, add 250 μL of cell suspension to either side of the open ends at the top of the insert. Incubate cells in a cell culture incubator for 12-24 hours. Carefully remove the insert from the well to begin the wound healing assay. Use sterile forceps to grab and lift the insert slowly from the plate well. Slowly aspirate and discard the media from the wells. Wash wells with media to remove dead cells and debris. Finally, add media to wells to keep cells hydrated. Repeat wash if wells still have debris or unattached cells. When washing is complete, add media with FBS and/or compounds to continue cell culture and wound healing process. Agents that inhibit or stimulate cell migration can be added directly to the wells. Incubate cells in a cell culture incubator (2 hours) and then wash cells with PBS and then add fresh media without compounds. Incubate 12-24 hours before wash and fixing. Remove the fixation solution and add 400 μL of Cell Stain Solution to each well. Allow the stain to incubate with the cells for 15 minutes at room temperature. Aspirate and discard the solution. Carefully wash each stained well 3× with deionized water. Discard washes and allow cells to dry at room temperature. Cells that migrated into the wounded area or protruded from the border of the wound were visualized and photographed under an inverted microscope. Determine the surface area of the defined wound area: Total Surface Area=0.9 mm x length. Determine the surface area of the migrated cells into the wound area: Migrated Cell Surface Area=length of cell migration (mm)×2 x length. Percent Closure (%)=Migrated Cell Surface Area/Total Surface Area x 100.

The next series relates to MDA-MB-231 cells. The description is as above. It counts as cell-based, human. The note with it: treated 2 hours. On the procedure: as §1
Series [6] has as its system human epithelial colorectal adenocarcinoma (Caco-2) cells. The note with it: cited from earlier work.
Series [7] concerns MDA-MB 231 and MCF-7 human breast epithelial cell lines. In words: Wound healing assay, overall statements for both cell lines. It counts as cell-based. On the procedure: as §1
For series [8] the following is noted: Table 2; cited from earlier work.
The next series relates to leukemia cell lines. The note with it: cited from earlier work.
The test system of another series is MCF7 BC cells. The following applies: cited from earlier work.
Another series concerns MDA-MB-231 BC cells. The note with it: cited from earlier work.
Series [9] has as its system BC and prostate cancer cell lines. The note with it: cancer cell lines vs normal counterparts; cited from earlier work.
The test system of another series is urothelial cancer cells. The note with it: cited from earlier work.
Series [10] concerns the target BC resistance protein (BCRP/ABCG2) (Homo sapiens, UniProt Q9UNQ0). The following applies: cited from earlier work.
Series [11] has as its system primary effusion lymphoma (PEL). The following applies: mice; cited from earlier work.
The subject of series [12] is H7-O Lewis lung cancer cells. The note with it: mice implanted with H7-O Lewis lung cancer cells; cited from earlier work.
Another series concerns mouse model of BC. The following applies: cited from earlier work.
The test system of series [13] is H7 Lewis lung cancer cell lines. The note with it: three H7 Lewis lung cancer cell lines; cited from earlier work.
The test system of series [14] is RTK-[PIP2]-PI3K-[PIP3]-AKT signaling in HeLa cells. The following applies: cited from earlier work.
Series [15] concerns MDA-MB-241 and ZR751 BC cells. The following applies: cited from earlier work.
A further series relates to α-synuclein. The note with it: mice, neuronal cell body and synapses; cited from earlier work.

Several values for one entry are separate records, joined by “and”; a condition that tells them apart may be missing. Equal entries are not always repeated. Where two headings read alike, the source gives them in different places. Marks after values point to notes of the source that are not given here.

Chain of BC resistance protein (BCRP/ABCG2) (Q9UNQ0 whole entry, the tested form may be a part): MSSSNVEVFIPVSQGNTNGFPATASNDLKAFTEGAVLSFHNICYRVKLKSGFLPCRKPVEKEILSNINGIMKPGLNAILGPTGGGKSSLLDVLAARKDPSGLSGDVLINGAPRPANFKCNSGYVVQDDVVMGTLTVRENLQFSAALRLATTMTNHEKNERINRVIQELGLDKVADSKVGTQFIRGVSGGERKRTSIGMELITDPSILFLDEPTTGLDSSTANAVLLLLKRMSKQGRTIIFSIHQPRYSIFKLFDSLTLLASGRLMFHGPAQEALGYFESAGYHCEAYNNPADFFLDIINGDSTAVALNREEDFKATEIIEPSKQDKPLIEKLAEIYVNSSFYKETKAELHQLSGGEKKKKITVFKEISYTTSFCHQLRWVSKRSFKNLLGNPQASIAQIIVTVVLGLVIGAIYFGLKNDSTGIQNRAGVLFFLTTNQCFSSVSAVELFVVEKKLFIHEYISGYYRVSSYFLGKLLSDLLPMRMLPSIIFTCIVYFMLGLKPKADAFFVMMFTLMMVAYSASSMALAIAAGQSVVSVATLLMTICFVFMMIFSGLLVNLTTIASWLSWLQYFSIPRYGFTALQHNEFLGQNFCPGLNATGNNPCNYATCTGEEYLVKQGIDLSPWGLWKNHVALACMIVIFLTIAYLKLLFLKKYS

One may read the LD50 as the dose expected to kill half of the subjects tested. On to `OC[C@H]1O[C@@H]2O[C@H]3[C@H](O)[C@@H](O)[C@@H](O[C@H]4[C@H](O)[C@@H](O)[C@@H](O[C@H]5[C@H](O)[C@@H](O)[C@@H](O[C@H]6[C@H](O)[C@@H](O)[C@@H](O[C@H]7[C@H](O)[C@@H](O)[C@@H](O[C@H]8[C@H](O)[C@@H](O)[C@@H](O[C@H]1[C@H](O)[C@H]2O)O[C@@H]8CO)O[C@@H]7CO)O[C@@H]6CO)O[C@@H]5CO)O[C@@H]4CO)O[C@@H]3CO` [β-cyclodextrin, beta-cyclodextrin], for which the “acute i.v. toxicity in rats” value in the series with rats [1] was 1 g/kg. Besides, the LD50 in the series with rats [2] is recorded as 788 mg/kg. Besides, the “steady-state volume of distribution” value in series [3] was “corresponds well with the extracellular fluid volume of each species”. In the series with transferrin endocytosis, the “reduction of transferrin endocytosis” value is recorded as 80%. In addition, the “toxicity of Ab1-40/42” value in the series with Ab1-40/42 is reported as “Toxicity of Ab1-40/42 was reduced”. Moreover, in the series with human keratinocytes, the apoptotic cell death result is recorded as “induces caspase-dependent apoptotic cell death”. Moreover, the “deaths, daily doses s.c.” value with rats [4] was “no deaths”. Further, in the series on BBB, the “Transport across BBB” value is recorded as 9.3 (1 mM) % and the BBB breakdown is 2.5 mM.

For the compound `OC[C@H]1O[C@@H]2O[C@H]3[C@H](O)[C@@H](O)[C@@H](O[C@H]4[C@H](O)[C@@H](O)[C@@H](O[C@H]5[C@H](O)[C@@H](O)[C@@H](O[C@H]6[C@H](O)[C@@H](O)[C@@H](O[C@H]7[C@H](O)[C@@H](O)[C@@H](O[C@H]8[C@H](O)[C@@H](O)[C@@H](O[C@H]9[C@H](O)[C@@H](O)[C@@H](O[C@H]1[C@H](O)[C@H]2O)O[C@@H]9CO)O[C@@H]8CO)O[C@@H]7CO)O[C@@H]6CO)O[C@@H]5CO)O[C@@H]4CO)O[C@@H]3CO` [γ-CD, gamma-cyclodextrin], in the series with human erythrocytes, the hemolytic activity result was “β-CD>α-CD>γ-CD”.

For the compound alendronate-β-CD [ALN-β-CD], the effect on bone result in series [5] is “bone-anabolic”.

“hydroxypropyl-alpha-cyclodextrin [HPaCD]”: the average wound closure in the series on MCF-7 cells (1 mM) stood at 41.33%; in the series with MCF-7 cells (2 mM) it was 36.00%; in the series with MCF-7 cells (4 mM), 28.67%; in the series with MDA-MB-231 cells (1 mM) it was 53.00%; in the series with MDA-MB-231 cells (2 mM) it was 40.00%; with MDA-MB-231 cells (4 mM), 31.67%. The “wound closure (Percent Closure), replications r1-r3” value with MCF-7 cells (1 mM) is 35.00% and 41.00% and 48.00%; in the series with MCF-7 cells (2 mM) it was 40.00% and 30.00% and 38.00%; in the series with MCF-7 cells (4 mM), 28.00% and 22.00% and 36.00%; in the series on MDA-MB-231 cells (1 mM), 47.00% and 53.00% and 59.00%; in the series with MDA-MB-231 cells (2 mM) it was 40.00% and 33.00% and 47.00%; in the series with MDA-MB-231 cells (4 mM), 38.00% and 32.00% and 25.00%. For the same compound, the cytotoxicity entry in series [6] (Caco-2 cells) is on record as “less cytotoxic than α-cyclodextrin”. Further, the “inhibition at 1 mM HPaCD compared with 2 mM HPbCD” value in series [7] was “superior to inhibition at 2 mM HPbCD”. In addition, the migration versus concentration result in series [7] (1-4 mM) is on record as “migration decreased with higher concentration”. The “effect on migration, HPaCD compared with HPbCD” value in [7] (all cases) is recorded as “stronger effect on migration than HPbCD”. In addition, the Solubility in water in series [8] is recorded as ~500^a g/l. Besides, in the series on BBB, the “Transport across BBB” value is reported as 26.7 (1 mM) %. In addition, the BBB breakdown in the series with BBB is given as 2.5 mM.

As for maltosyl-α-cyclodextrin, in series [6], the cytotoxicity result was “less cytotoxic than α-cyclodextrin”.

Consider methyl-β-cyclodextrin [MβCD], for which the “growth of leukemia cell lines” value in the series with leukemia cell lines is recorded as “inhibited the growth”. Besides, in the series with MCF7 BC cells, the endocytosis entry is “inhibited” and the migration entry is given as “inhibited”. Moreover, in the series on MDA-MB-231 BC cells, the “internalization of exosomes containing integrins” value is “inhibited the internalization of exosomes”. In addition, the “sensitivity to induced cell death” value in series [9] was “more sensitive to MβCD-induced cell death than their normal counterparts”. The “toxicity, invasive vs non-invasive cells” value in the series on urothelial cancer cells was “more toxic for invasive than for non-invasive urothelial cancer cells”. Also, the “decrease in activity of BCRP/ABCG2” value in series [10] is given as 40%. Further, the “growth of primary effusion lymphoma” value in [11] is “inhibited growth”. Moreover, in [12], the “number of lung metastases” value was “reduced the number of lung metastases”. Further, the concentration in tumor result with mouse model of BC is “higher concentration in tumor than in other cells (except kidney and liver)”. Also, the “efficacy in mouse model of BC” value in the series with mouse model of BC (in vivo) is “effective”. Moreover, in [13], the invasion activity result was “suppressed invasion activity”. The “RTK-[PIP2]-PI3K-[PIP3]-AKT signaling” value in series [14] is “interfered with RTK-[PIP2]-PI3K-[PIP3]-AKT signaling”. The “spheroid migration and invasion” value in series [15] was “inhibited”. The “accumulation of α-synuclein” value in the series on α-synuclein is “reduced accumulation of α-synuclein”.

The values above are taken from patent publication US20200000840A1, “USE OF CYCLODEXTRINS TO REDUCE ENDOCYTOSIS IN MALIGNANT AND NEURODEGENERATIVE DISORDERS” (priority 2016, published 2020).
